The source of these data is paper PMC8817134, “Galangin as a direct inhibitor of vWbp protects mice from Staphylococcus aureus‐induced pneumonia” (Journal of Cellular and Molecular Medicine, 2021).

The target in assay [1] is T1, vWbp (von Willebrand factor-binding protein) (Staphylococcus aureus, UniProt Q93SM9, L69A).
T1 construct: gene vwb
Put plainly: biochemical. From the text:
(§1) fluorescence quenching on vWbp (von Willebrand factor-binding protein)

For assay [2], the target named is T2, vWbp (von Willebrand factor-binding protein) (Staphylococcus aureus, UniProt Q93SM9, W64A).
T2 construct: gene vwb
Kind of assay: biochemical.
Source text: as §1

The target in assay [3] is T3, vWbp (von Willebrand factor-binding protein) (Staphylococcus aureus, UniProt Q93SM9, M83A).
T3 construct: gene vwb
Kind of assay: biochemical.
Source text: as §1

Assay [4] deals with T4, vWbp (von Willebrand factor-binding protein) (Staphylococcus aureus, UniProt Q93SM9, D70A).
T4 construct: gene vwb
Put plainly: biochemical.
Source text: as §1

Assay [5] concerns the target T5, vWbp (von Willebrand factor-binding protein) (Staphylococcus aureus, UniProt Q93SM9).
T5 construct: gene vwb; His-tagged, pET15b, E. coli BL21(DE3), Ni-NTA purified
Put plainly: tube and plate coagulation assay. The assay is classed as biochemical. The settings on record: purified vWbp added to heparinised rabbit blood or fibrinogen agarose, 37 °C; 16-256 μg/ml galangin.

In assay [6] the target is T5, vWbp (von Willebrand factor-binding protein). Put plainly: fluorescence quenching. The settings on record: read-out: WT vWbp (converted).
Source text: as §1

Assay [7] has the same target. Kind of assay: biolayer interferometry (Octet RED, Ni-NTA sensor). The settings on record: read-out: binding constant.

The structures appear in SMILES notation.

As to `O=c1c(O)c(-c2ccccc2)oc2cc(O)cc(O)c12` [galangin, 3,5,7-trihydroxyflavone], the Kd was 31.2 µM in assay [1]; 20 µM in assay [2]; 7.35 µM in assay [3]; 9.71 µM in assay [4]; 6.9 µM in assay [6]; 11 µM in assay [7]. In assay [5], the “tube and plate coagulation assay” value is listed as “these results demonstrated that galangin can inhibit the coagulase activity of vWbp”.
